This note sets out measurements from patent US20220356170A1, “SREBP INHIBITOR COMPRISING A THIOPHENE CENTRAL RING” (Capulus Therapeutics, LLC, priority 2019, published 2022).

Values after ≈ are worked out from the molar mass of the structure shown.

Data set [1] can be described thus: In vivo pharmacokinetics, oral. The following applies: male C57 BL/6 mice. The procedure:
The in vivo pharmacokinetic properties of Compound 1 by both intravenous and oral administration were evaluated in male C57 BL/6 mice. The in vivo pharmacokinetic properties of Compound 2 by both intravenous and oral administration were evaluated in male C57 BL/6 mice for comparison.
Animals were housed in cages with clean bedding. Certified rodent diet was provided. Water was available ad libitum. Environmental controls for the animal room were set to maintain a temperature of 22 to 25° C., humidity of 40-70% RH, and a 12-hour light /12-hour dark cycle. Normal healthy animals certified by the attending veterinarian were selected and acclimatized for minimum three days prior to initiation of study.
Procedure for Blood Withdrawal: Mice were anesthetized using gaseous anesthesia. Blood samples were collected through a capillary, guided in retro-orbital plexus. At each time point, blood samples from 3 mice of each respective group were collected. The blood samples were collected in pre-labeled tubes. 0.2 to 0.3 mL of blood were collected from each mouse. After collection of the blood samples at each time point, the samples were stored on ice prior to centrifugation. Blood samples were centrifuged within 15 minutes to separate plasma. Centrifugations was done at 1540 rcf (5000 rpm) at 4° C. for 10 minutes. The plasma was separated and transferred to pre-labeled micro-centrifuge tubes and promptly frozen at −80±10° C. until bioanalysis was performed. Samples were identified by test item, group, animal number, and collection time point.
To evaluate pharmacokinetic properties of oral delivery, nine male C57 BL/6 mice were administered 10 mg Compound 1/kg animal weight by mouth. The concentration of Compound 1 in the plasma of the animals was evaluated at 0.25, 0.5, 1, 2, 4, 6, 8, and 24 hr by taking blood samples. Compound 2 was similarly administered for comparison.

Another data set can be described thus: Kinetic solubility. To be noted: aqueous buffer, kinetic from dmso stock, pH 7.4 buffer, room temperature, 1.0% DMSO. Format: physicochemical. As to the method: Kinetic Solubility Procedure: A 10 mM stock solution of Compound 1 was prepared in DMSO, then 4 μL of the stock was added to a deep well plate containing 396 μL of pH 7.4 buffer. The sample plate was vortexed at 800 rpm for 24 h on thermomixer at room temperature. The plate was sealed well during the incubation process. The DMSO content in the sample was 1.0%. The concentration of Compound 1 in the final incubation was 100 μM. At the end of the incubation period, the sample plate was centrifuged at 4000 rpm for 10 min and analyzed in LC-UV against a calibration curve (CC).

Data set [2] is described as follows: Half-life in rat liver microsomes. In kind it is in vitro ADME. To be noted: read-out: Rat LM: Half life. The procedure: Half-life Human Microsomes: Compound 1 was evaluated for stability in human liver microsomes. A 10 mM stock solution of Compound 1 was prepared in DMSO and diluted with water: acetonitrile (1:1) to a concentration of 1 mM. A working concentration of 100 μM was prepared by further dilution with water: acetonitrile (1:1). To make the preincubation mixture, 2.5 μL of the diluted Compound 1 was combined with 75 μL of human liver microsomes at 3.33 mg/mL, and 85 μL of 100 mM potassium phosphate buffer, and this mixture pre-incubated for 10 min at 37° C. To make the 60 minute mixture without cofactor, 32.5 μL of the preincubation mixture was combined with 17.5 μL of 100 mM potassium phosphate buffer and incubated for 60 min at 37° C. […] To prepare the sample mixture to be evaluated, 25 μL incubation mixture was combined with 200 μL of acetonitrile containing internal standard and vortexed for 5 min at 1200 rpm, then centrifuged for 10 min at 4000 rpm. […] The sample mixture was evaluated by LC-MS/MS using 10 mM ammonium acetate with 0.1% FA as the aqueous mobile phase, and methanol as the organic mobile phase.
Half-life Rat and Mouse Microsomes: Compound 1 was evaluated in rat and mouse liver microsomes following a similar procedure as described above for human liver microsomes.
On the technique in general: Liver microsomes are vesicles of endoplasmic reticulum, rich in cytochrome P450 enzymes.

Another data set relates to NCIH358M. Put plainly: Cancer cell growth inhibition, Sulforhodamine B. Format: cell-based. To be noted: NCI-H358M; NCIH358M (lung), 72 hr; Non-Responder Cell Lines with IC50 >10 uM or Not Determined. As to the method:
(§1) The ability of select compounds to inhibit cell growth in various cancer cell lines are evaluated. […] The cell lines shown in Table 5 have reduced growth by at least 50% at 10 uM or lower over 72 hr treatment in growth media. The cell lines shown in Table 6 have reduced growth by at least 50% with an IC50 greater than 10 uM.
(§2) Six 10-fold compound dilutions are prepared in DMSO (e.g. 10 mM, 1 mM, 100 uM, 10 uM, 1 uM, and 0.1 uM). Single data points are acquired for each concentration. The final concentration of DMSO is 0.1%. The duration of the treatment is 72 hr. Growth inhibition is measured using Sulforhodamine B in a protein staining assay. Activity of the agents is determined by evaluation the following parameters: IC50, GI50, IC10, TGI, LC50, IC90, and GI90 (where these values can be calculated).

A further data set has as its system ASPC1. Put plainly: Cancer cell growth inhibition, Sulforhodamine B. To be noted: Homo sapiens; ASPC1 (pancreas), 72 hr; Responder Cell Lines. Format: cell-based. As to the method:
as §1, §2

For another data set, the system named is COLO205. The data set is described as follows: Cancer cell growth inhibition, Sulforhodamine B. In kind it is cell-based. To be noted: Homo sapiens, COLO 205; COLO205 (colon), 72 hr; Responder Cell Lines. The procedure: as §1, §2
The subject of the next data set is SF268. Put plainly: Cancer cell growth inhibition, Sulforhodamine B. Format: cell-based. The following applies: Homo sapiens, SF-268; SF268 (brain), 72 hr; Non-Responder Cell Lines with IC50 >10 uM or Not Determined. The procedure:
as §1, §2

A short description of data set [3]: Log D, octanol/aqueous buffer partitioning. In kind it is physicochemical. The following applies: 1-octanol/aqueous buffer; 1-octanol/buffer. The procedure:
Log D Procedure: The Log D of Compound 1 was evaluated by octanol/aqueous buffer partitioning. 500 μL of organic phase (1-octanol) was added to each well of a 2 mL deep well plate, followed by 500 μL of buffer and 15 μL of test compound in DMSO (0.15 mM). The plate was vortexed for 10 seconds and incubated at room temperature for 1 hr on a plate shaker at 200 rpm. After incubation, the samples were allowed to equilibrate for 20 min and then centrifuged at 4000 rpm for 30 min for complete phase separation. The distribution of test compound in buffer and octanol phase was analyzed by HPLC-UV. Log D=Log (Area of Octanol/Area of Buffer)

[4] abbreviates: mouse, plasma, oral, dose 10.00 mg/kg (Compound 1), 12.01 mg/kg (Compound 2).

Usually bioavailability stands for dose-corrected exposure relative to a reference, in per cent. The low end stands for poor availability, the high end for good availability. The AUC(0-inf) is total exposure, with the tail of the curve extrapolated. Low readings indicate low exposure, high ones high exposure. A word on the AUC(0-t): it is exposure summed from dosing to a finite time, without extrapolation to infinity. Low readings indicate low exposure, high ones high exposure. What is called Cmax is the highest concentration seen after dosing. In general, Tmax refers to the time at which the peak concentration occurs. As a reminder, the half-life is the time needed for the level to fall by half in the phase considered. By kinetic solubility is commonly meant the concentration staying in solution when a stock, usually in DMSO, is diluted into the medium. For orientation: IC50 means the concentration that gives 50% inhibition. Read a low IC50 as greater potency. Broadly, the logD is lipophilicity at a set pH, counting ionised and neutral species.

As for `CC(C)(O)c1cc(-c2csc(-c3ccc(C(=O)N4CCC(O)CC4)cc3Cl)c2)ccn1` [Compound 1, (3-chloro-4-(4-(2-(2-hydroxypropan-2-yl)pyridin-4-yl)thiophen-2-yl)phenyl)(4-hydroxypiperidin-1-yl)methanone], in data set [1] (mouse, plasma, oral vs intravenous), the bioavailability was determined as 59.7%. For the same compound, in data set [1] (setting [4]), the AUC(0-inf) was 76300 ng·h/mL, the AUC(0-t) stood at 71200 ng·h/mL, the concentration peaked (Cmax) at 7840 ng/mL and the Tmax came out at 0.5 h. Besides, the half-life in data set [1] (setting [4]) was 6.18 h. Further, the MRT last in data set [1] (mouse, plasma, oral, dose 10.00 mg/kg (Compound 1), 12.01 mg/kg (Compound 2), read-out: MRT0-last) amounted to 7.6 h. The AUCExtra in data set [1] (oral, dose 10.00 mg/kg (Compound 1), 12.01 mg/kg (Compound 2)) was found to be 6.77%. This compound also showed a solubility (kinetic) at 24 h in the data set “Kinetic solubility” of 37 µM (≈ 16.9 µg/mL). The half-life at 1 µM in data set [2] was 1.68 h. For the same compound, in the data set on NCIH358M, the IC50 is over 10 µM. The IC50 with ASPC1 was under 10 µM. This compound registered an IC50 with COLO205 of under 10 µM. This compound came in with an IC50 with SF268 of over 10 µM. Besides, the logD in data set [3] amounted to 3.38.
